Like-named read-outs stand apart in the source and are kept apart here.
How the values were obtained:
[1] = system: Respiratory Syncytial Virus (RSV) long strain; experiment: microbe, parasite or virus in culture; assay type: cell-based; details: human respiratory syncytial virus, Tables A and B list compounds by EC50 band
In short: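 CPE-reduction format: viability measured colorimetrically with CCK-8 (450 nm, 630 nm reference) after 3-4 h, following 5-day infection at 37 °C, 5% CO2. Cells were HEp-2; inoculum 100 TCID50/well; duplicate 9-point 1/3 series starting at 100 μM or 1 μM.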

recombinant RSV complex = recombinant RSV complex (Human respiratory syncytial virus A, UniProt P28887); experiment: RSV Polymerase Inhibition Assay; assay type: biochemical
In short: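 Inhibition measured as reduced incorporation of radiolabel into RNA products, detected by scintillation counting. Reactions: recombinant RSV complex (10 nM), RNA oligonucleotides, Tris-HCl pH 7.5, 6 mM MgCl2, inhibitor titration, 2 h at 30 °C, EDTA stop.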

RSV replicon = experiment: microbe, parasite or virus in culture; assay type: cell-based; details: human respiratory syncytial virus, read-out: EC50, the concentration of the drug required for reducing RSV replicon RNA by 50%
[2] = HEp-2, 120 h, read-out: 50% effective concentration (EC50), HEp-2 cells infected with RSV long strain, 5 days, CCK-8 readout

Sequence of recombinant RSV complex (P28887 whole entry): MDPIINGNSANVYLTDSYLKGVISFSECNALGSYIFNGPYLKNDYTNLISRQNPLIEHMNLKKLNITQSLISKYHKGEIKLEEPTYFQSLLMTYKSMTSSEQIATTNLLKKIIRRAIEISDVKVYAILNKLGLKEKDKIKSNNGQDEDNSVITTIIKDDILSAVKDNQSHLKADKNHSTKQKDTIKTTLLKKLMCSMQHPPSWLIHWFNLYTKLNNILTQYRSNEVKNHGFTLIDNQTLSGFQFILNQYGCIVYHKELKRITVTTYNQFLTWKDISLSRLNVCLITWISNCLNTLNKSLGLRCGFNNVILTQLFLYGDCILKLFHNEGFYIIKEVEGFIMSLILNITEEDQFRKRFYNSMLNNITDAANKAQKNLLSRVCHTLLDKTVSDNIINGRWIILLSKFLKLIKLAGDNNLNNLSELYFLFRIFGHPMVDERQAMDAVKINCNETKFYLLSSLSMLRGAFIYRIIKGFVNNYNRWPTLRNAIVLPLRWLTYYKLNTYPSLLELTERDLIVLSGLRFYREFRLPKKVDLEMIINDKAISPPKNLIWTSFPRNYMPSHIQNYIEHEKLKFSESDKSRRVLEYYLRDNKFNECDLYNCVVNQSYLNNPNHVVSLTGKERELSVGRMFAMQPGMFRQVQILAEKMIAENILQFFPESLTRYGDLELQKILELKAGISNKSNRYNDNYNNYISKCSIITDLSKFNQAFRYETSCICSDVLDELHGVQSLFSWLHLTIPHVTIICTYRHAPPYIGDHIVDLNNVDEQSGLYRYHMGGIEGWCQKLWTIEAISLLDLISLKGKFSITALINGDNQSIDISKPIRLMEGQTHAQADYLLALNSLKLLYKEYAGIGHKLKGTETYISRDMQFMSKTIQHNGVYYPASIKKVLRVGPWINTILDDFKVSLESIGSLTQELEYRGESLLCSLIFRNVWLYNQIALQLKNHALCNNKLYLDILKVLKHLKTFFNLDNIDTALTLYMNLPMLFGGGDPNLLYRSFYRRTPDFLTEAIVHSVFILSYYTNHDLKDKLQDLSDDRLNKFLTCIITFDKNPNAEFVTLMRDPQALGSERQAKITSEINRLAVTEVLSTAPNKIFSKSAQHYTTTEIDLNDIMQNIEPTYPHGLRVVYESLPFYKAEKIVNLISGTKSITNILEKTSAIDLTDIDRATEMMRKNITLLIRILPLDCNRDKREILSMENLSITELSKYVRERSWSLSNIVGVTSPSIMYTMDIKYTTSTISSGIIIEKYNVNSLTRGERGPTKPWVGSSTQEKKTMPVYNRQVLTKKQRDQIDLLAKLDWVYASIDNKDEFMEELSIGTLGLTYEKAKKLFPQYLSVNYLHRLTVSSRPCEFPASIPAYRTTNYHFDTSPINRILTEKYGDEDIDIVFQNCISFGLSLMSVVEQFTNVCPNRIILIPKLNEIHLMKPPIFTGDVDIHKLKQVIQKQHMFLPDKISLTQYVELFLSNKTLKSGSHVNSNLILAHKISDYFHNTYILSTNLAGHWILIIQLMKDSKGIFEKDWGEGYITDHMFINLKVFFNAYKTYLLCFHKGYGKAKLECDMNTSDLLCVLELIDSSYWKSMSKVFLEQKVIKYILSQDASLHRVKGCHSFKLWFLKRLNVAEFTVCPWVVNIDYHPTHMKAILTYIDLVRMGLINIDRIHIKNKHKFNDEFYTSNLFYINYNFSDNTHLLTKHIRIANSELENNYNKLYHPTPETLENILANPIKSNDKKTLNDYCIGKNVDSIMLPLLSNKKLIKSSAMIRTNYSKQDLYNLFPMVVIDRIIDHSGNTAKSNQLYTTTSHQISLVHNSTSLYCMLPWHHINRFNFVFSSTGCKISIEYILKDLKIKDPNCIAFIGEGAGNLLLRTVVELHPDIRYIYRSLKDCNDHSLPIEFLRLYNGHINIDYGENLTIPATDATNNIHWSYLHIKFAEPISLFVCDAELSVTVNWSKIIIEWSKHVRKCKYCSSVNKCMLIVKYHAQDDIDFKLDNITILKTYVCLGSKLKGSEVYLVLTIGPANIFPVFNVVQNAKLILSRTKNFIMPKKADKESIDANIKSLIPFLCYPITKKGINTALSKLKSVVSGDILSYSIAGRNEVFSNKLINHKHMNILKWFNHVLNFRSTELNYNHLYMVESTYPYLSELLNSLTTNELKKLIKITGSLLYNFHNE
Sequence of recombinant RSV complex (P03421 whole entry, further chain): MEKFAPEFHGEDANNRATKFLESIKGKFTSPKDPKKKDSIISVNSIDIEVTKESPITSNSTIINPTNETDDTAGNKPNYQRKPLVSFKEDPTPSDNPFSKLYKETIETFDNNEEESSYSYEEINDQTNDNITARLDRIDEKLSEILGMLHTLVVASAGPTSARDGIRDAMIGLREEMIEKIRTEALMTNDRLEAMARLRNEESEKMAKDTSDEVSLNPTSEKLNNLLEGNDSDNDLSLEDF

SMILES | EC50 [1, 2] | IC50 (recombinant RSV complex) | EC50 (RSV replicon) | EC50 ([1]; 120 h, read-out: 50% effective concentration (EC50), HEp-2 cells infected with RSV long strain, 5 days, CCK-8 readout)
COc1cc(C(=O)NCC(O)(c2cc(C(C)(C)N)cc(-c3ccc(F)c(Cl)c3)n2)C(F)(F)F)ccc1OC1CC1 (stereo not drawn) [Compound 314] | < 1000 nM | < 1000 nM | < 1000 nM | –
CC(C)(N)c1cc(-c2ccc(F)c(Cl)c2)nc(C(O)(CNC(=O)c2ccc(OC3CC3)c(Cl)c2)C(F)(F)F)c1 (stereo not drawn) [Compound 282] | < 1000 nM | < 1000 nM | < 1000 nM | –
COc1cc(C(=O)NCC(O)(c2cc(C(C)(C)N)cc(-c3c[nH]c4c(F)cccc34)n2)C(F)(F)F)ccc1OC1CC1 (stereo not drawn) [Compound 519] | < 1000 nM | < 1000 nM | < 1000 nM | –
COc1cc(C(=O)NCC(O)(c2cc(C(C)(C)N)cc(-c3ccc(C(F)(F)F)cc3)n2)C(F)(F)F)ccc1OC1CC1 (stereo not drawn) [Compound 523] | – | < 1000 nM | < 1000 nM | –
COc1cc(C(=O)NCC(O)(c2ccc(OC)c(-c3ccc(F)c(Cl)c3)n2)c2cnn(C)n2)ccc1OCCO (stereo not drawn) [Compound 198] | < 1000 nM | < 1000 nM | < 1000 nM | –
COc1cc(C(=O)NCC(O)(c2cc(C3CCNCC3)cc(-c3ccc(F)c(Cl)c3)n2)C(F)(F)F)ccc1OC1CC1 (stereo not drawn) [Compound 576] | – | < 1000 nM | < 1000 nM | –
COc1ccc(C(O)(CNC(=O)c2ccc(OCC(N)=O)c(F)c2)C(F)(F)F)nc1-c1ccc(F)c(Cl)c1 (stereo not drawn) [Compound 380] | – | < 1000 nM | < 1000 nM | –
COc1cc(C(=O)NCC(O)(c2cc(C(C)(C)N)cc(-c3ccc(Cl)cc3)n2)C(F)(F)F)ccc1OC1CC1 (stereo not drawn) [Compound 520] | – | < 1000 nM | < 1000 nM | < 1000 nM
COc1cc(C(=O)NCC(O)(c2cc(C(C)(C)N)cc(-c3ccc(F)cc3)n2)C(F)(F)F)ccc1OC/C(N)=N/O (stereo not drawn) [Compound 636] | – | < 1000 nM | < 1000 nM | –
COc1cc(C(=O)NCC(O)(c2cc(C3(O)CNC3)cc(-c3ccc(F)c(Cl)c3)n2)C(F)(F)F)ccc1OC1CC1 (stereo not drawn) [Compound 555] | – | < 1000 nM | < 1000 nM | –
CC(C)(N)c1cc(-c2ccc(F)c(Cl)c2)nc(C(O)(CNC(=O)c2ccc(OC3CCNC3=O)c(Cl)c2)C(F)(F)F)c1 (stereo not drawn) [Compound 281] | < 1000 nM | < 1000 nM | < 1000 nM | –
COc1cc(-c2cc(C(C)(C)N)cc(C(O)(CNC(=O)c3ccc(OCCO)c(OC)c3)C(F)(F)F)n2)ccn1 (stereo not drawn) [Compound 659] | – | < 10000 nM | < 1000 nM | –
CCOc1ccc(C(=O)NCC(O)(c2cc3c(c(-c4ccc(F)c(Cl)c4)n2)OCC3(C)N)C(F)(F)F)cc1Cl (stereo not drawn) [Compound 494] | < 1000 nM | < 1000 nM | < 1000 nM | –
COc1cc(C(=O)NCC(O)(c2cc(C(C)(C)NC3COC3)cc(-c3ccc(F)cc3)n2)C(F)(F)F)ccc1OC1CC1 (stereo not drawn) [Compound 581] | – | < 1000 nM | < 1000 nM | –
COc1cc(C(=O)NCC(C)(O)c2cc(C(C)(C)N)cc(-c3ccc(F)cc3)n2)ccc1OCC(N)=O (stereo not drawn) [Compound 602] | – | < 1000 nM | < 1000 nM | –
COc1cc(C(=O)NCC(O)(c2cc(C(C)(C)N)cc(-c3ccc(Cl)nc3)n2)C(F)(F)F)ccc1OC1CC1 (stereo not drawn) [Compound 567] | – | < 1000 nM | < 1000 nM | –
COc1cc(C(=O)NCC(O)(c2cc(C(C)(C)N)cc(-c3ccc(F)c(Br)c3)n2)C(F)(F)F)ccc1OC1CC1 (stereo not drawn) [Compound 524] | – | < 1000 nM | < 1000 nM | –
COc1cc(C(=O)NCC(O)(c2cc([C@]3(C)CCN3)cc(-c3ccc(F)c(Cl)c3)n2)C(F)(F)F)ccc1OC1CC1 (stereo partly drawn) [Compound 603] | – | < 1000 nM | < 1000 nM | –
COc1cc(C(=O)NCC(=O)c2cc3c(c(-c4ccc(F)c(Cl)c4)n2)OCCC3(C)C)ccc1OCCO [Compound 311] | – | < 1000 nM | < 1000 nM | –
COc1cc(C(=O)NCC(C)(OC)c2ccc(OC)c(-c3ccc(F)c(Cl)c3)n2)ccc1OCC(F)F (stereo not drawn) [Compound 375] | – | < 1000 nM | 1000 to 50000 nM | –
COc1cc(C(=O)NCC(O)(c2cc(C3(N)CCC3)cc(-c3ccc(F)c(Cl)c3)n2)C(F)(F)F)ccc1OC1CC1 (stereo not drawn) [Compound 355] | – | < 1000 nM | < 1000 nM | –
COc1cc(C(=O)NCC(O)(c2ccc(OC)c(-c3ccc(F)c(Cl)c3)n2)C(F)(F)F)ccc1OC(C)C (stereo not drawn) [Compound 378] | – | < 1000 nM | 1000 to 50000 nM | –

Reference: patent publication US11021444B2, “Antiviral compounds” (priority 2013, dated 2021)
